Reference: patent publication US8389557B2, “Triazole derivatives useful as Axl inhibitors” (Rigel Pharmaceuticals, Inc., priority 2005, dated 2013)

Molecular target: T1, Axl (Homo sapiens, UniProt P30530)
T1 construct: endogenous in cells; host or cells: HeLa cells
T1 sequence (P30530 26-894): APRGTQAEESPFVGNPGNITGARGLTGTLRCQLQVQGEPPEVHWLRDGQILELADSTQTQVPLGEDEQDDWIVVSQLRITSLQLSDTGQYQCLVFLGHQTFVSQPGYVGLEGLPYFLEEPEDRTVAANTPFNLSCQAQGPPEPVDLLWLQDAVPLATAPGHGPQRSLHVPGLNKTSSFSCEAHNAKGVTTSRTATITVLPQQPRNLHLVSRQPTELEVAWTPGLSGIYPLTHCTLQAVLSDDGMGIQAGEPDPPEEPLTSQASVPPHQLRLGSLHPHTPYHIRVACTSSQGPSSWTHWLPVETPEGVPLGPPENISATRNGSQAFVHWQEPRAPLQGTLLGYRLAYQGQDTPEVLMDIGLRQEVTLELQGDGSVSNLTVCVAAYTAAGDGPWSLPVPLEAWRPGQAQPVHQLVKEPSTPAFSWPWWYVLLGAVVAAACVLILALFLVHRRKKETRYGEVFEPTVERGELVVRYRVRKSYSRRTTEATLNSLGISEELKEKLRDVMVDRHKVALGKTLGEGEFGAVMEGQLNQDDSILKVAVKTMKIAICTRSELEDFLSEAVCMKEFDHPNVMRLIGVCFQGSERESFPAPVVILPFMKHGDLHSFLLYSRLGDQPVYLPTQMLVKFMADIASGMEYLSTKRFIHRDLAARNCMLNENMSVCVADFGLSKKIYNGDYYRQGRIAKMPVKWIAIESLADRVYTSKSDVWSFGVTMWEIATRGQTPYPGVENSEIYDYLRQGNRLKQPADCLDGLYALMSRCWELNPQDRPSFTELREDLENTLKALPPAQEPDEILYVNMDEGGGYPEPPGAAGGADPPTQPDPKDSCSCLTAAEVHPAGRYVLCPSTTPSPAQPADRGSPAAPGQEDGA
Assay: Phospho-Akt in-cell Western assay (inhibition of Axl activity)
Type: cell-based
Method in brief: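 HeLa cells on poly-L-lysine, starved 24 h in 0.5% FCS DMEM with Axl/Fc 500 ng/mL, pre-treated with compound 1 h at 37° C. Axl stimulated 5 min by anti-Axl/anti-mouse antibody cross-linking. Fixed cells probed with anti-phospho-Akt and HRP secondary, chemiluminescence read.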

[1] = inhibition of Axl activity, Table 1
[2] = Table 5, Hela cells, Axl antibody cross-linking stimulation, phospho-Akt chemiluminescence
[3] = Table 2, Hela cells, Axl antibody cross-linking stimulation, phospho-Akt chemiluminescence

IC50 [1] [µM] | Structure (SMILES) | also measured
– | Cc1cccc(C(=O)n2nc(Nc3ccc4nn(C)cc4c3)nc2N)c1 [compound 222, 5-amino-3-(2-methyl-2H-indazol-5yl)amino-1-(3-methylphenyl)carbonyl-1H-1,2,4-triazole] | IC50 [2]: > 20 µM
1 to 10 | Cc1cccc(C(=O)n2nc(Nc3cccc(OCC(=O)NCCOC4CCCCO4)c3)nc2N)c1 (centres unmarked) [compound 223] | –
> 20 | Cc1cccc(C(=O)n2nc(Nc3cccc(OCC(=O)O)c3)nc2N)c1 [compound 224, 5-amino-3-(3-hydroxycarbonylmethoxy)phenylamino-1-(3-methylphenyl)carbonyl-1H-1,2,4-triazole] | –
1 to 10 | Cc1cccc(C(=O)n2nc(Nc3cccc(OCC(=O)NCCO)c3)nc2N)c1 [compound 225, 5-amino-3-[3-((2-hydroxyethyl)aminocarbonylmethoxy)phenyl]amino-1-(3-methylphenyl)carbonyl-1H-1,2,4-triazole] | –
1 to 10 | Nc1nc(Nc2ccc3c(c2)OCCO3)nn1C(=O)c1ccc(OCCN2CCCCC2)cc1 [compound 226] | –
– | Cc1cccc(C(=O)n2nc(Nc3ccc4c(cnn4C)c3)nc2N)c1 [compound 227, 5-amino-3-[1-methyl-1H-indazol-5-yl]amino-1-(3-methylphenyl)carbonyl-1H-1,2,4-triazole] | IC50 [2]: 1 to 10 µM
> 20 | Nc1nc(Nc2ccc3c(c2)OCCO3)nn1C(=O)c1cccc(OCC(F)(F)F)c1 [compound 228, 5-amino-3-(1,4-benzodioxan-6-yl)amino-1-(3-(2,2,2-trifluoroethoxy)phenyl)carbonyl-1H-1,2,4-triazole] | –
– | Cc1cccc(C(=O)n2nc(Nc3ccc4occc4c3)nc2N)c1 [compound 229, 5-amino-3-(benzofuran-5-yl)amino-1-(3-methylphenyl)carbonyl-1H-1,2,4-triazole] | IC50 [2]: 1 to 10 µM
> 20 | Nc1nc(Nc2ccc3c(c2)OCCO3)nn1C(=O)c1ccc(OCC(F)(F)F)cc1 [compound 230, 5-amino-3-(1,4-benzodioxan-6-yl)amino-1-(4-(2,2,2-trifluoroethoxy)phenyl)carbonyl-1H-1,2,4-triazole] | –
> 20 | NC(=O)COc1cccc(C(=O)n2nc(Nc3ccc4c(c3)OCCO4)nc2N)c1 [compound 231, 5-amino-1-(3-aminocarbonylmethoxy)phenylcarbonyl-3-(1,4-benzodioxan-6-yl)amino-1H-1,2,4-triazole] | –
1 to 10 | CC(C)c1ccc(C(=O)n2nc(Nc3ccc4c(c3)OCCO4)nc2N)cc1 [compound 232, 5-amino-3-(1,4-benzodioxan-6-yl)amino-1-(4-iso-propylphenyl)carbonyl-1H-1,2,4-triazole] | –
– | CC(C)c1ccc(C(=O)n2nc(N)nc2Nc2ccc3c(c2)OCCO3)cc1 [compound 233, 3-amino-5-(1,4-benzodioxan-6-yl)amino-1-(4-iso-propylphenyl)carbonyl-1H-1,2,4-triazole] | IC50 [3]: > 20 µM
1 to 10 | Cc1ccc(C(=O)n2nc(Nc3ccc4c(c3)OCCO4)nc2N)cc1C [compound 234, 5-amino-1-(3,4-dimethylphenyl)carbonyl-3-(1,4-benzodioxan-6-yl)amino-1H-1,2,4-triazole] | –
1 to 10 | Cc1cccc(C(=O)n2nc(Nc3cccc(OCS(C)(=O)=O)c3)nc2N)c1 [compound 235, 5-amino-1-(3-methylphenyl)carbonyl-3-[3-(methylsulfonylmethoxy)phenyl]amino-1H-1,2,4-triazole] | –
– | Cc1ccc(C(=O)n2nc(N)nc2Nc2ccc3c(c2)OCCO3)cc1C [compound 236, 3-amino-1-(3,4-dimethylphenyl)carbonyl-5-(1,4-benzodioxan-6-yl)amino-1H-1,2,4-triazole] | IC50 [3]: > 20 µM
1 to 10 | CSc1ccc(C(=O)n2nc(Nc3ccc4c(c3)OCCO4)nc2N)cc1 [compound 237, 5-amino-3-(1,4-benzodioxan-6-yl)amino-1-(4-thiomethylphenyl)carbonyl-1H-1,2,4-triazole] | –
– | CSc1ccc(C(=O)n2nc(N)nc2Nc2ccc3c(c2)OCCO3)cc1 [compound 238, 3-amino-5-(1,4-benzodioxan-6-yl)amino-1-(4-thiomethylphenyl)carbonyl-1H-1,2,4-triazole] | IC50 [3]: > 20 µM

IC50 [1] [µM] | Structure (SMILES) | also measured
– | Cc1cc(C)cc(C(=O)n2nc(Nc3ccc4c(c3)OCCO4)nc2N)c1 [compound 239, 5-amino-3-(1,4-benzodioxan-6-yl)amino-1-(3,5-dimethylphenyl)carbonyl-1H-1,2,4-triazole] | IC50 (inhibition of Axl activity, phospho-Akt in-cell Western assay, Table 1): 1 to 10 µM
> 20 | Nc1nc(Nc2ccc3c(c2)OCCO3)nn1C(=O)c1ccc([N+](=O)[O-])cc1 [compound 240, 5-amino-3-(1,4-benzodioxan-6-yl)amino-1-(4-nitrophenyl)carbonyl-1H-1,2,4-triazole] | –
– | Cc1cc(C(=O)n2nc(N)nc2Nc2ccc3c(c2)OCCO3)ccc1F [compound 241, 3-amino-5-(1,4-benzodioxan-6-yl)amino-1-[(4-fluoro-3-methyl)phenyl]carbonyl-1H-1,2,4-triazole] | IC50 [3]: > 20 µM
> 20 | Cc1cc(C(=O)n2nc(Nc3ccc4c(c3)OCCO4)nc2N)ccc1F [compound 242, 5-amino-3-(1,4-benzodioxan-6-yl)amino-1-[(4-fluoro-3-methyl)phenyl]carbonyl-1H-1,2,4-triazole] | –
1 to 10 | Nc1ccc(C(=O)n2nc(Nc3ccc4c(c3)OCCO4)nc2N)cc1 [compound 243, 5-amino-1-(4-aminophenyl)carbonyl-3-(1,4-benzodioxan-6-yl)amino-1H-1,2,4-triazole] | –
> 20 | Nc1nc(Nc2ccc3c(c2)OCCO3)nn1C(=O)c1ccc(C(F)(F)F)cc1 [compound 244, 5-amino-3-(1,4-benzodioxan-6-yl)amino-1-[(4-trifluoromethyl)phenyl]carbonyl-1H-1,2,4-triazole] | –
> 20 | N#Cc1ccc(C(=O)n2nc(Nc3ccc4c(c3)OCCO4)nc2N)cc1 [compound 245, 5-amino-1-(4-cyanophenyl)carbonyl-3-(1,4-benzodioxan-6-yl)amino-1H-1,2,4-triazole] | –
1 to 10 | CC(=O)Nc1ccc(C(=O)n2nc(Nc3ccc4c(c3)OCCO4)nc2N)cc1 [compound 246, 1-[(4-Acetylamino)phenyl]carbonyl-5-amino-3-(1,4-benzodioxan-6-yl)-amino-1H-1,2,4-triazole] | –
1 to 10 | CN(C)c1ccc(C(=O)n2nc(Nc3ccc4c(c3)OCCO4)nc2N)cc1 [compound 247, 5-amino-1-[(4-dimethylamino)phenyl]carbonyl-3-(1,4-benzodioxan-6-yl)amino-1H-1,2,4-triazole] | –
> 20 | CS(=O)(=O)c1ccc(C(=O)n2nc(Nc3ccc4c(c3)OCCO4)nc2N)cc1 [compound 248, 5-amino-3-(1,4-benzodioxan-6-yl)amino-1-[(4-methylsulfonyl)phenyl]carbonyl-1H-1,2,4-triazole] | –
> 20 | Cc1ccc(C(=O)n2nc(Nc3ccc4c(c3)OCCO4)nc2N)cc1Cl [compound 249, 5-amino-1-[(3-chloro-4-methyl)phenyl]carbonyl-3-(1,4-benzodioxan-6-yl)-amino-1H-1,2,4-triazole] | –
– | Cc1cccc(C(=O)n2nc(Nc3ccc4ncsc4c3)nc2N)c1 [compound 250, 5-amino-3-(benzothiazol-6-yl)amino-1-(3-methylphenyl)carbonyl-1H-1,2,4-triazole] | IC50 [2]: 1 to 10 µM
– | Cc1cccc(C(=O)n2nc(Nc3ccc4ncccc4c3)nc2N)c1 [compound 251, 5-amino-1-(3-methylphenyl)carbonyl-3-(6-quinolinyl)amino-1H-1,2,4-triazole] | IC50 [2]: 1 to 10 µM
– | Cc1cccc(C(=O)n2nc(Nc3ccc4[nH]ccc4c3)nc2N)c1 [compound 252, 5-amino-3-(1H-indol-5-yl)amino-1-(3-methylphenyl)carbonyl-1H-1,2,4-triazole] | IC50 [2]: 1 to 10 µM
– | Cc1cccc(C(=O)n2nc(Nc3ccc4cn(C)nc4c3)nc2N)c1 [compound 253, 5-amino-3-(1H-2-methyl-indazol-6-yl)amino-1-(3-methylphenyl)carbonyl-1H-1,2,4-triazole] | IC50 [2]: 1 to 10 µM
– | Cc1cccc(C(=O)n2nc(Nc3ccc4cnn(C)c4c3)nc2N)c1 [compound 254, 5-amino-3-(1H-1-methyl-indazol-6-yl)amino-1-(3-methylphenyl)carbonyl-1H-1,2,4-triazole] | IC50 [2]: > 20 µM
– | Cc1cccc(C(=O)n2nc(Nc3ccc4[nH]c(C)cc4c3)nc2N)c1 [compound 255, 5-amino-3-(1H-2-methyl-indol-5-yl)amino-1-(3-methylphenyl)carbonyl-1H-1,2,4-triazole] | IC50 [2]: 1 to 10 µM

Structure (SMILES) | IC50 [1] [µM] | also measured
Cc1cccc(C(=O)n2nc(Nc3cccc(OCC(=O)OC(C)(C)C)c3)nc2N)c1 [compound 221, 5-amino-1-(3-methylphenyl)carbonyl-3-[(3-tert-butoxycarbonylmethoxy)phenyl]amino-1H-1,2,4-triazole] | 1 to 10 | –
